Laboratory results taken from patent US6429024B1, “Test method for IgA nephropathy” (Asahi Kasei Kabushiki Kaisha, priority 1998, dated 2002).

Tested on: antibody recognizing the core peptide of the hinge region in IgA1 (IgG class, serum of patient with IgA nephropathy)
Assay: Assay of inhibitory activities of various synthetic peptides (enzyme immunoassay: patient serum pre-incubated with peptide, then reacted with immobilized IgA1 hinge core peptide-BSA antigen)
Type: binding
Settings: synthetic peptide 1 μg/ml in PBS mixed 1:1 with 1/50 diluted serum, room temperature 3 hours; peroxidase labeled anti-human IgG; absorbancy at 490 nm
Method: Antigen was prepared according to the method described in the above example 1 (1).
The above antigen solution was dissolved to […] in 0.015 M carbonate buffer (pH 9.6) and each 100 μl was added in each well of the 96 well microtiter plate (A Flow General Co., Linbro/Titertek EIA Microtitration plate, Cat. No. 76-381-04), then incubated at 4° C. overnight (standing culture).
PBS (0.01 M phosphate buffer, pH 7.5 containing 0.15 M NaCl) solution (200 μl) containing 1% bovine serum albumin (fraction V, purchased from SIGMA Inc.) was added in each well, and incubated at 4° C. overnight. Each well was washed with 200 μl of PBS. The antigen was immobilized.
Synthetic peptide [the core peptide constructing a part of the hinge region in IgA1 as follows:
was dissolved to 1 μg/ml with PBS. The above diluted serum of patient with IgA nephropathy and the solution of synthetic peptide were mixed in equal volume (1:1). Also the above diluted serum of patient with IgA nephropathy and PBS without containing synthetic peptide (hereinafter designated as blank solution) were mixed in equal volume (1:1). These mixtures were incubated at room temperature for 3 hours.
After termination of the incubation, each solution (100 μl) was added in each well, which was provided with the antigen immobilized therein, of the 96 well microtiter plate and incubated at room temperature for 3 hours.
Each well was washed three times with 200 μl of PBS containing 0.1% bovine serum albumin, 0.05% Tween-20 (hereinafter designated as PS/BSA/Tween).
A solution (100 μl) of peroxidase labeled anti-human IgG (purchased from Organon Tecknika Inc.), which was diluted to 1/200 with PBS, was added in each well.
After incubation at room temperature for 1 hour, each well was washed three times with PS/BSA/Tween (200 μl).
Coloring agent (100 μl)(orthophenylenediamine 20 mg, sodium […]·12H2O 1.795 g, citric acid 0.525 g, and hydrogen peroxide 15 μl were dissolved in water 50 ml) was added in each well, and incubated at room temperature for 1 hour.
After the incubation was terminated, absorbency at 490 nm was measured using microplate reader (Bio-Red Inc., Microplate reader Model 450).

Substance	inhibitory action on the reaction of patient serum with the core peptide of the hinge region in IgA1
Thr Pro Asp Glu Thr (TPDET; listed as Bovine sp.) [core peptide constructing a part of the bovine serum albumin, reference compound]	no inhibitory action on the reaction was observed
Leu Pro Pro Leu Thr (LPPLT; listed as Bovine sp.) [core peptide constructing a part of the bovine serum albumin, reference compound]	no inhibitory action on the reaction was observed
Thr Pro Pro Thr Pro (TPPTP) [core peptide constructing a part of the hinge region in IgA1]	inhibitory action on the reaction was observed
Pro Thr Pro Ser Pro (PTPSP) [core peptide constructing a part of the hinge region in IgA1]	inhibitory action on the reaction was observed
Pro Ser Pro Ser Cys (PSPSC) [core peptide constructing a part of the hinge region in IgA1]	inhibitory action on the reaction was observed
Pro Ser Pro Ser Thr (PSPST) [core peptide constructing a part of the hinge region in IgA1]	inhibitory action on the reaction was observed
Leu Lys Pro Asp Pro (LKPDP; listed as Bovine sp.) [core peptide constructing a part of the bovine serum albumin, reference compound]	no inhibitory action on the reaction was observed
Pro Val Pro Ser Thr (PVPST) [core peptide constructing a part of the hinge region in IgA1]	inhibitory action on the reaction was observed
Pro Ser Thr Pro Pro (PSTPP) [core peptide constructing a part of the hinge region in IgA1]	inhibitory action on the reaction was observed
Ser Pro Asp Leu Pro (SPDLP; listed as Bovine sp.) [core peptide constructing a part of the bovine serum albumin, reference compound]	no inhibitory action on the reaction was observed
Thr Pro Val Glu Ser (TPVES; listed as Bovine sp.) [core peptide constructing a part of the bovine serum albumin, reference compound]	no inhibitory action on the reaction was observed
